# “Also recorded” adds a separate entry of the source.
# Experiments:
# [1] = tested on: mice with ALF induced by TAA; assay: Liver histology in thioacetamide (TAA) induced acute liver failure; format: in vivo, C57BL6/J mice; details: TAA 500 mg/kg; celastrol 2.5 mg/kg by injection; 3 days after ALF induction
# Description: The administration of thiomacetamide (TAA) to induce liver damage is a well-known model of acute liver failure (ALF), see for example, Müller et al., “Thioacetamide-induced cirrhosis-like liver lesions in rats—usefulness and reliability of this animal model.” Exp Pathol. 1988; 34(4):229-36. Groups of C57BL6/J mice received either TAA (1000 mg/kg), TAA (500 mg/kg), or placebo by intraperitoneal injection. The group receiving TAA (500 mg/kg) was divided into two subgroups, and one group received NS by injection and the other group received celastrol by injection (2.5 mg/kg). Mice were sacrificed either one or three days after treatment. The livers of the mice were removed for histological examination (FIGS. 11A-11D).
# [2] = tested on: cytokine production in mouse blood; assay: Cytokine/chemokine levels in blood serum (Millipore 21-Plex, Luminex); format: in vivo, C57BL6/J mice
# Description: Mice received either a placebo, celastrol (3.0 mg/kg), or 17-AAG (10 mg/kg) by intraperitoneal injection. Blood samples were taken from all groups of mice at 0, 1, 3, 6, 24, 48, and 72 hours after administration of the placebo, celastrol, or 17-AAG. The blood samples were analyzed for cytokine production, including the production of granulocyte-macrophage colony-stimulating factor (GM-CSF), interferon-gamma (IFN-γ), interleukin-10 (IL-10), interleukin-12 subunit beta (IL-12p40), interleukin-12 heterodimer (IL-12p70), interleukin-12 homodimer (IL-12p80), vascular endothelial growth factor (VEGF), tumor necrosis factor-alpha (TNF-α), keratinocyte derived chemokine (KC), RANTES (Regulated upon Activation, Normal T-cell Expressed, and Secreted; CCL5), monocyte chemotactic protein-1 (MCP 1), macrophage inflammatory protein (MIP1β; CCL4), interleukin-4 (IL-4), interleukin-3 (IL-3), interleukin-2 (IL-2), interleukin-1 beta (IL-1β), interleukin-1 alpha (IL-1α), interleukin-9 (IL-9), interleukin-13 (IL-13), interleukin-17 (IL-17), interleukin-6 (IL-6), and interleukin-5 (IL-5). Blood serum was analyzed using a commercially available kit (e.g., Mouse cytokine/chemokine panel: 21-Plex; Millipore). Blood serum (50 μl) was assayed in duplicate using a commercially available cytokine/chemokine detection kit from Millipore following the protocol given with the product information. The final measurement was performed using a commercially available detector (e.g., computer-operated Luminex 100 IS system) and the results were expressed as pg/ml blood serum sample. Levels of cytokines in blood were quantitated as a concentration of the total volume of the sample.
# [3] = tested on: NOD mice; assay: Blood glucose / diabetes incidence in NOD mouse model; format: in vivo
# Description: The NOD mouse is recognized as a model for human Type1 diabetes (Anderson and Bluestone, “THE NOD MOUSE: A Model of Immune Dysregulation” Annual Review of Immunology 23: 447-485, 2005, which is incorporated by reference in its entirety). Celastrol was administered to the mice at the rate of 3.0 mg/kg body weight via intra-peritoneal injection once a week in NOD mice starting from 4 weeks of age. When mice attained 11 weeks of age, the compound was administered at the rate of 3.3 mg/kg body weight via oral gavage three times a week up to 30 weeks of age. Blood glucose levels were measured at the time of celastrol administration once a week from 4-10 weeks and three times a week from 11-30 weeks. Mice in control group were treated with placebo.
# [4] = celastrol 3.0 mg/kg i.p., over the course of the experiment
# [5] = celastrol 3.0 mg/kg i.p., throughout the 72 hour time course
# [6] = i.p. celastrol 3.0 mg/kg or 17-AAG 10 mg/kg, 72 hour time course
# [7] = i.p. celastrol 3.0 mg/kg or 17-AAG 10 mg/kg, sampled 0-72 h
# [8] = i.p. celastrol 3.0 mg/kg or 17-AAG 10 mg/kg, sampled 0-72 h, vs placebo control
smiles,measurement,setting,value
CC1=C(O)C(=O)C=C2C1=CC=C1[C@@]2(C)CC[C@@]2(C)[C@@H]3C[C@](C)(C(=O)O)CC[C@]3(C)CC[C@]12C [celastrol],liver histology after ALF induction,[1],regression of liver injury
same,level of GM-CSF compared to placebo control,"[2]; celastrol 3.0 mg/kg i.p., 72 hour time course",elevated again between 24 and 48 hours; also recorded: elevated again 6 to 48 hours
same,level of IL-9 compared to placebo control,"[2]; celastrol 3.0 mg/kg i.p., after peak",remained slightly elevated up to 72 hours
same,level of IL-6 compared to placebo control,[2]; [4],not significantly different
same,level of RANTES compared to placebo control,[2]; [4],not significantly different
same,level of IL-2 compared to placebo control,[2]; [5],slightly elevated
same,level of VEGF compared to placebo control,[2]; [5],slightly elevated
same,level of IL-1α compared to placebo control,"[2]; celastrol 3.0 mg/kg i.p., throughout the experiment",slightly decreased
same,level of IL-13 compared to placebo control,"[2]; celastrol 3.0 mg/kg i.p., up to 48 hours post treatment, risen again by 72 hours",slightly elevated
same,level of IL-17 compared to placebo control,[2]; i.p. celastrol 3.0 mg/kg (throughout 72 hours) or 17-AAG 10 mg/kg (up to 48 hours),slightly elevated
same,level of IFN-γ compared to placebo control,[2]; [6],slightly elevated
same,level of IL-5 compared to placebo control,[2]; [6],not significantly different
same,level of IL-12p40 compared to placebo control,[2]; [6],slightly elevated
same,time by which GM-CSF (elevated pre treatment) declined to placebo control levels,[2]; [7],≤ 6 h
same,time by which IL-3 (slightly elevated pre treatment) declined to placebo control levels,[2]; [7],≤ 1 h
same,time by which IL-4 (slightly elevated pre treatment) declined to placebo control levels,[2]; [7],≤ 1 h
same,time by which MIP1β returned or declined to placebo control levels,[2]; [7],≤ 6 h
same,time by which TNF-α (elevated pre treatment) declined to placebo control levels,[2]; [7],≤ 6 h
same,time of peak level of IL-9 post treatment,[2]; [8],around 3 hours
same,time of peak level of KC post treatment,[2]; [8],around 6 hours
same,mice that became hyperglycemic (more than 250 mg/dL),"[3]; celastrol 3.0 mg/kg i.p. once a week from 4 weeks, 3.3 mg/kg oral gavage three times a week from 11 to 30 weeks of age, at 23 weeks of age",twenty
same,mice euglycemic or normoglycemic (less than 250 mg/dL),"[3]; same regimen, up to 30 weeks of age",Eighty

# Reference: patent US20110218143A1, “COMPOSITIONS AND METHODS FOR TISSUE REPAIR” (UNIVERSITY OF FLORIDA RESEARCH FOUNDATION, priority 2007, published 2011)
